{"source": "patent US8877745B2", "about": "“CCR2 receptor antagonists, method for producing the same, and use thereof as medicaments” (Boehringer Ingelheim International GmbH, priority 2010, dated 2014)"}
{"biological_target": "T1, CCR2 (Homo sapiens, UniProt P41597)", "T1 construct": "Membranes were prepared from THP-1 cells; endogenous in cells; host or cells: THP-1 (human acute monocytic leukaemia cells), membrane preparation", "T1 sequence (P41597 whole entry)": "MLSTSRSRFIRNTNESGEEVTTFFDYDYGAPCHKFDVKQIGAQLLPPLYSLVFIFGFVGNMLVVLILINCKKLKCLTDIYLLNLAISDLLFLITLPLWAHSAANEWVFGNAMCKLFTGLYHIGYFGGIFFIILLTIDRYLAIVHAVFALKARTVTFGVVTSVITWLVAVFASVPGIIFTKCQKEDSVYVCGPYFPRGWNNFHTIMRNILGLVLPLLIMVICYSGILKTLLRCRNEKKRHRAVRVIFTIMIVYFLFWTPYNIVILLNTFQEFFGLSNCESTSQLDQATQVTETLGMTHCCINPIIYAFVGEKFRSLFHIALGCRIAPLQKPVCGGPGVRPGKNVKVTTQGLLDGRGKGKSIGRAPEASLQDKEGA", "experiment": "CCR2 receptor membrane binding assay ([125I]MCP-1, THP-1 cell membranes, SPA beads)", "details": "THP-1 membranes, [125I]MCP-1, bound radioactivity determined after 8 h; read-out: hKi", "method": "The above exemplary substances have been tested for binding to CCR2 using a binding assay as outlined herein below:\nTHP-1 cells (human acute monocytic leukaemia cells) were cultured under standardized conditions at 37° C. and 5% CO2 in a humidified incubator. THP-1 cells were cultivated in RPMI 1640 medium (Gibco 21875) containing 1% MEM-NEAA (Gibso 11140) 2 mM L-glutamine, 1.5 g/L sodium bicarbonate, 4.5 g/L glucose, 10 mM HEPES and 1.0 mM sodium pyruvate, 90%; 10% fetal calf serum (FCS Gibco 10500-064).\nMembranes were prepared from THP-1 cells. THP-1 cells were centrifuged at 300×g at 4° C. for 10 min. The cell pellet was resuspended in Phosphate Buffer Saline (PBS, including 10 μM Pefabloc and a protease inhibitor mix ‘complete’, Boehringer Mannheim (1 tablet/50 ml)), to a concentration of […]. The membrane preparation was performed by disrupting the cells by nitrogen […] (at 50 bar, for 1 h) in a “Nitrogen Bombe” (Parr Instrument). Cell debris was removed by centrifugation (800×g at 4° C., 1 min). The supernatant was centrifuged at 80000×g, 4° C. for 30 min to sediment the cell membranes. Usually 50 mg of protein (Bradford assay) were yielded from 1×10E9 cells. The membranes were resuspended in 25 mM HEPES, 25 mM MgCl2, 1 mM CaCl2, 10% Glycerine for storage in aliquots at −80° C. in 25 mM HEPES, 25 mM MgCl2, 1 mM CaCl2, 10% Glycerine and stored at −80° C.\nReceptor Membrane Binding Assay:\nPerkin Elmer NEX 332 Jod 125 MCP-1, Stock: 2200 Ci/mmol solved in […] assay buffer, stored at −20° C. THP-1 membrane were adjusted with 25 mM HEPES, pH 7.2; 5 mM MgCl2; 0.5 mM CaCl2; 0.2% BSA assay buffer to a concentration of 2.5 μg/15 μl. Amersham Biosciences PVT-WGA Beads (RPNQ0001) were adjusted with assay buffer to a concentration of 0.24 mg/30 μl. For preparation of the membrane-bead-suspension membranes and beads were incubated for 30 min at RT under rotation (60 rpm) with a ratio of 1:2. Test compounds dissolved in 100% DMSO to a concentration of 10 mM and are further diluted with 100% DMSO to 1 mM. All additional compound dilutions were obtained with assay buffer, final 1% DMSO. Compounds, membrane-bead-suspension and [^125I]MCP-1 (ca. 25000 cpm/10 μl) were incubated. Bound radioactivity was determined by scintillation counter after 8 h. Determination of affinity of test compounds (dissociation constant hKi) is calculated by iterative fitting of experimental data using the “easy sys” program, which is based on law of mass action (Schittkowski K. (1994), Numerische Mathematik, Vol. 68, 129-142).", "units": {"Ki": "nM"}}
{"compound": "COC1COCCC1NC1CCN(C(=O)c2ncnc(N3CCN(c4ccc5c(c4)OCCO5)CC3)c2C)CC1", "note": "(centres unmarked) [Example 62ad]", "Ki": 336}
{"compound": "CO[C@@H]1COCC[C@@H]1NC1CCN(C(=O)c2nc(C3CC3)nc(N3CCc4ccc(C(F)(F)F)cc4C3)c2C)CC1", "note": "[Example 69x]", "Ki": 0.7}
{"compound": "Cc1c(C(=O)N2CCC(NC3CCOCC3)CC2)ncnc1N1CCc2ccc(C(F)(F)F)cc2C1", "note": "[Example 69r]", "Ki": 7}
{"compound": "COC1COCCC1NC1CCN(C(=O)c2ncnc(N3CCN(c4cccc(C)c4)CC3)c2C)CC1", "note": "(centres unmarked) [Example 62af]", "Ki": 257}
{"compound": "COC1COCCC1NC1CCN(C(=O)c2ncnc(N3CCc4ccc(Cl)cc4C3)c2C)CC1", "note": "(centres unmarked) [Example 10]", "Ki": 14}
{"compound": "COc1ccc(C2CCN(c3ncnc(C(=O)N4CCC(N5CCC(N(C)S(C)(=O)=O)CC5)CC4)c3C)CC2)cc1", "note": "[Example 21]", "Ki": 4410}
{"compound": "COC1COCCC1NC1CCN(C(=O)c2ncnc(N3CCc4ccc(C)cc4C3)c2C)CC1", "note": "(centres unmarked) [Example 59]", "Ki": 42}
{"compound": "Cc1c(C(=O)N2CCC(N3CCC(N(C)S(C)(=O)=O)CC3)CC2)ncnc1N1CCCC(c2ccc(C(F)(F)F)cc2)C1", "note": "(centres unmarked) [Example 34]", "Ki": 4250}
{"compound": "Cc1c(C(=O)N2CCC(C(N)=O)(N3CCCCC3)CC2)ncnc1N1CCc2ccc(C(F)(F)F)cc2C1", "note": "[Example 78]", "Ki": 1250}
{"compound": "Cc1c(C(=O)N2CCC(N3CCCCC3)CC2)ncnc1N1CCc2ccc(C(F)(F)F)cc2C1", "note": "[Example 80]", "Ki": 101}
{"compound": "Cc1c(C(=O)N2CCC(N(C)C)CC2)ncnc1N1CCc2ccc(C(F)(F)F)cc2C1", "note": "[Example 79]", "Ki": 925}
{"compound": "Cc1c(C(=O)N2CCC(N3CCC(N(C)S(C)(=O)=O)CC3)CC2)ncnc1N1CCC(c2cccc(F)c2)CC1", "note": "[Example 22]", "Ki": 3790}
{"compound": "COC1COCCC1NC1CCN(C(=O)c2ncnc(N3CCc4ccc(F)cc4C3)c2C)CC1", "note": "(centres unmarked) [Example 7]", "Ki": 27}
{"compound": "CCN(CC)C1CCN(C(=O)c2ncnc(N3CCc4ccc(C(F)(F)F)cc4C3)c2C)CC1", "note": "[Example 74]", "Ki": 552}
{"compound": "COC1COCCC1NC1CCN(C(=O)c2ncnc(N3CCC4(CC3)CC(=O)c3cc(F)ccc3O4)c2C)CC1", "note": "(centres unmarked) [Example 62g]", "Ki": 538}
{"compound": "COC1COCCC1NC1CCN(C(=O)c2ncnc(N3CCCC(c4ccc(C)cc4)C3)c2C)CC1", "note": "(centres unmarked) [Example 33]", "Ki": 2110}
{"compound": "COC1COCCC1NC1CCN(C(=O)c2ncnc(N3CCC(c4ccccc4Cl)C3)c2C)CC1", "note": "(centres unmarked) [Example 62e]", "Ki": 419}
{"compound": "COC1COCCC1NC1CCN(C(=O)c2ncnc(N3CCC(c4ccc(C)cc4)CC3)c2C)CC1", "note": "(centres unmarked) [Example 13]", "Ki": 739}
{"compound": "COC1COCCC1NC1CCN(C(=O)c2ncnc(N3CCc4ccc(C(C)C)cc4C3)c2C)CC1", "note": "(centres unmarked) [Example 62k]", "Ki": 12}
{"compound": "COc1nc(C(=O)N2CCC(N[C@H]3CCOC[C@H]3OC)CC2)c(C)c(N2CCc3ccc(C(F)(F)F)cc3C2)n1", "note": "[Example 69j]", "Ki": 1}
{"compound": "COC1COCCC1NC1CCN(C(=O)c2ncnc(N3CCCC(c4ccc(C(F)(F)F)cc4)C3)c2C)CC1", "note": "(centres unmarked) [Example 36]", "Ki": 1270}
{"compound": "Cc1c(C(=O)N2CCN(C)CC2)ncnc1N1CCc2ccc(C(F)(F)F)cc2C1", "note": "[Example 70]", "Ki": 3560}
{"compound": "COC1COCCC1NC1CCN(C(=O)c2ncnc(N3CCN(c4ccccc4Cl)CC3)c2C)CC1", "note": "(centres unmarked) [Example 62aa]", "Ki": 89}
{"compound": "COC1COCCC1NC1CCN(C(=O)c2ncnc(N3CCCC(c4ccc(F)cc4)C3)c2C)CC1", "note": "(centres unmarked) [Example 32]", "Ki": 3600}
{"compound": "COC1COCCC1NC1CCN(C(=O)c2ncnc(N3CCC(c4ccc(Cl)cc4)CC3)c2C)CC1", "note": "(centres unmarked) [Example 18]", "Ki": 331}
{"compound": "COC1COCCC1NC1CCN(C(=O)c2ncnc(N3CC4CC4(c4cc(C(F)(F)F)cc(C(F)(F)F)c4)C3)c2C)CC1", "note": "(centres unmarked) [Example 62c]", "Ki": 351}
{"compound": "COC1COCCC1NC1CCN(C(=O)c2ncnc(N3CCOC(c4ccc(Cl)cc4)C3)c2C)CC1", "note": "(centres unmarked) [Example 4]", "Ki": 1090}
{"compound": "COC1COCCC1NC1CCN(C(=O)c2ncnc(N3CCN(c4ccc(Cl)cc4Cl)CC3)c2C)CC1", "note": "(centres unmarked) [Example 62ag]", "Ki": 40}
{"compound": "COC1COCCC1NC1CCN(C(=O)c2ncnc(N3CCC4(CCc5cc(Br)ccc5O4)CC3)c2C)CC1", "note": "(centres unmarked) [Example 62ab]", "Ki": 16}
{"compound": "CO[C@@H]1COCC[C@@H]1NC1CCN(C(=O)c2ncnc(N3CCc4ccc(Br)cc4C3)c2C)CC1", "note": "[Example 69y]", "Ki": 7}
{"compound": "COC1COCCC1NC1CCN(C(=O)c2ncnc(N3CCC(c4ccc(Cl)cc4)C3)c2C)CC1", "note": "(centres unmarked) [Example 53]", "Ki": 172}
{"compound": "COC1COCCC1NC1CCN(C(=O)c2ncnc(N3CCN(c4ccc(C(F)(F)F)cc4)CC3)c2C)CC1", "note": "(centres unmarked) [Example 62p]", "Ki": 119}
{"compound": "COC1COCCC1NC1CCN(C(=O)c2ncnc(N3CCN(c4ccccc4C)CC3)c2C)CC1", "note": "(centres unmarked) [Example 62m]", "Ki": 300}
{"compound": "Cc1c(C(=O)N2CCC(N3CCC(c4cccc(C(=O)O)c4)CC3)CC2)ncnc1N1CCc2ccc(C(F)(F)F)cc2C1", "note": "[Example 83]", "Ki": 698}
{"compound": "CO[C@@H]1COCC[C@@H]1NC1CCN(C(=O)c2ncnc(N3CCc4ccc(F)cc4C3)c2C)CC1", "note": "[Example 69h]", "Ki": 39}
{"compound": "COC1COCCC1NC1CCN(C(=O)c2ncnc(N3CCN(c4c(Cl)cncc4Cl)CC3)c2C)CC1", "note": "(centres unmarked) [Example 62aj]", "Ki": 35}
{"compound": "COC1COCCC1NC1CCN(C(=O)c2ncnc(N3CCC4(CCc5ccccc54)CC3)c2C)CC1", "note": "(centres unmarked) [Example 62]", "Ki": 590}
{"compound": "Cc1c(C(=O)N2CCCN(C)CC2)ncnc1N1CCc2ccc(C(F)(F)F)cc2C1", "note": "[Example 81]", "Ki": 2320}
{"compound": "CO[C@@H]1COCC[C@@H]1NC1CCN(C(=O)c2ncnc(N3CCc4ccc(C(F)(F)F)cc4C3)c2C)CC1", "note": "[Example 63]", "Ki": 4}
{"compound": "COC1COCCC1NC1CCN(C(=O)c2ncnc(N3CCC(c4ccc(C(F)(F)F)cc4)CC3)c2C)CC1", "note": "(centres unmarked) [Example 41]", "Ki": 432}
{"compound": "COc1c(C(=O)N2CCC(N3CCC(N(C)S(C)(=O)=O)CC3)CC2)ncnc1N1CCc2ccc(C(F)(F)F)cc2C1", "note": "[Example 68]", "Ki": 50}
{"compound": "COc1c(C(=O)N2CCC(N[C@H]3CCOC[C@H]3OC)CC2)ncnc1N1CCc2ccc(OC(F)(F)F)cc2C1", "note": "[Example 69d]", "Ki": 11}
{"compound": "COC1COCCC1NC1CCN(C(=O)c2ncnc(N3CCn4c(-c5ccccc5)cnc4C3)c2C)CC1", "note": "(centres unmarked) [Example 62s]", "Ki": 5140}
{"compound": "COc1nc(C(=O)N2CCC(N[C@@H]3CCOC[C@@H]3OC)CC2)c(C)c(N2CCc3ccc(C(F)(F)F)cc3C2)n1", "note": "[Example 69i]", "Ki": 4}
{"compound": "Cc1c(C(=O)N2CCC(N3CCC(N(C)S(C)(=O)=O)CC3)CC2)ncnc1N1CCC(c2ccc(Cl)cc2)C1", "note": "(centres unmarked) [Example 47]", "Ki": 1100}
{"compound": "Cc1c(C(=O)N2CCC(N[C@H]3CCOC[C@H]3F)CC2)ncnc1N1CCc2ccc(Br)cc2C1", "note": "[Example 69ac]", "Ki": 96}
{"compound": "Cc1c(C(=O)N2CCC(N[C@@H]3CCOC[C@@H]3F)CC2)ncnc1N1CCc2ccc(Br)cc2C1", "note": "[Example 69ab]", "Ki": 37}
{"compound": "COc1ccc(C2CCN(c3ncnc(C(=O)N4CCC(NC5CCOCC5OC)CC4)c3C)CC2)cc1", "note": "(centres unmarked) [Example 14]", "Ki": 1610}
{"compound": "COC1COCCC1NC1CCN(C(=O)c2ncnc(N3CCN(c4c(C)cccc4C)CC3)c2C)CC1", "note": "(centres unmarked) [Example 62ai]", "Ki": 34}
{"compound": "COC1COCCC1NC1CCN(C(=O)c2ncnc(N3CCc4cccc(C(F)(F)F)c4C3)c2C)CC1", "note": "(centres unmarked) [Example 2]", "Ki": 507}
{"compound": "COC1COCCC1NC1CCN(C(=O)c2ncnc(N3CCN(c4cccc(C)c4C)CC3)c2C)CC1", "note": "(centres unmarked) [Example 62ah]", "Ki": 41}
{"compound": "COC1COCCC1NC1CCN(C(=O)c2ncnc(N3CCc4ccccc4CC3)c2C)CC1", "note": "(centres unmarked) [Example 54]", "Ki": 636}
{"compound": "COC1COCCC1NC1CCN(C(=O)c2ncnc(N3CCC(c4ccccc4)C3)c2C)CC1", "note": "(centres unmarked) [Example 50]", "Ki": 451}
{"compound": "Cc1c(C(=O)N2CCC(N3CCC(N(C)S(C)(=O)=O)CC3)CC2)ncnc1N1CCC2(CCc3ccccc32)CC1", "note": "[Example 6]", "Ki": 1640}
{"compound": "Cc1c(C(=O)N2CCC(N3CCC(N(C)S(C)(=O)=O)CC3)CC2)ncnc1N1CCOC(c2ccc(Cl)cc2)C1", "note": "(centres unmarked) [Example 3]", "Ki": 3690}
{"compound": "CO[C@H]1COCC[C@H]1N(C)C1CCN(C(=O)c2ncnc(N3CCc4ccc(C(F)(F)F)cc4C3)c2C)CC1", "note": "[Example 84]", "Ki": 41}
{"compound": "COC1COCCC1NC1CCN(C(=O)c2ncnc(N3CCN(c4cccc(C(F)(F)F)c4)CC3)c2C)CC1", "note": "(centres unmarked) [Example 57]", "Ki": 189}
{"compound": "COC1COCCC1NC1CCN(C(=O)c2ncnc(N3Cc4ccccc4C4(CC4)C3)c2C)CC1", "note": "(centres unmarked) [Example 62l]", "Ki": 1380}
{"compound": "COC1COCCC1NC1CCN(C(=O)c2ncnc(N3CCCN(c4ccc(Cl)cc4)CC3)c2C)CC1", "note": "(centres unmarked) [Example 62j]", "Ki": 516}
